# Results: ChEMBL document CHEMBL3046083, “Synthesis, characterization and antimicrobial evaluation of novel derivatives of isoniazid” (2012)
# Tested on: Escherichia coli
# Assay: Antimicrobial activity against Escherichia coli ATCC 25922 at 50 ug/ml after 24 to 48 hr by agar diffusion method
# Format: functional
# Settings: read-out: DIZ
row,Compound,zone of inhibition at 50 µg/mL [mm]
1,CC1(C)S[C@@H]2[C@H](NC(=O)[C@H](N)c3ccc(O)cc3)C(=O)N2[C@H]1C(=O)O [AMOXICILLIN],30

# Tested on: Pseudomonas aeruginosa
# Assay: Antimicrobial activity against Pseudomonas aeruginosa ATCC […] at 50 ug/ml after 24 to 48 hr by agar diffusion method
# Format: functional
# Settings: read-out: DIZ
row,Compound,zone of inhibition at 50 µg/mL [mm]
1,CC1(C)S[C@@H]2[C@H](NC(=O)[C@H](N)c3ccc(O)cc3)C(=O)N2[C@H]1C(=O)O [AMOXICILLIN],21

# Tested on: Nakaseomyces glabratus
# Assay: Antimicrobial activity against Candida glabrata ATCC 10233 by broth dilution method
# Format: functional
# Settings: not given
Compound,MFC [µg/mL],MIC [µg/mL],MIC50 [µg/mL]
CCOc1c(/C=N\NC(=O)c2ccncc2)cccc1CN1CCN(C)CC1,50,12.5,12.8
CCCCN(CCCC)Cc1cccc(/C=N\NC(=O)c2ccncc2)c1OCC,100,12.5,12.8
CCOc1ccccc1/C=N\NC(=O)c1ccncc1,100,25,25.6
CCCN(CCC)Cc1cccc(/C=N\NC(=O)c2ccncc2)c1OCC,100,12.5,12.8
CCOc1c(/C=N\NC(=O)c2ccncc2)cccc1CN1CCCCC1,100,12.5,12.8

# Tested on: Candida albicans
# Assay: Antimicrobial activity against Candida albicans ATCC 10231 by broth dilution method
# Format: functional
# Settings: not given
Compound,MFC [µg/mL],MIC [µg/mL],MIC50 [µg/mL]
CCOc1c(/C=N\NC(=O)c2ccncc2)cccc1CN1CCN(C)CC1,25,12.5,6.4
CCCCN(CCCC)Cc1cccc(/C=N\NC(=O)c2ccncc2)c1OCC,100,25,12.8
CCOc1ccccc1/C=N\NC(=O)c1ccncc1,50,50,25.6
CCCN(CCC)Cc1cccc(/C=N\NC(=O)c2ccncc2)c1OCC,50,25,12.8
CCOc1c(/C=N\NC(=O)c2ccncc2)cccc1CN1CCCCC1,100,12.5,12.8

# Tested on: Escherichia coli
# Assay: Antimicrobial activity against Escherichia coli ATCC 25922 after 24 hr by broth dilution method
# Format: functional
# Settings: ATCC 25922, 24 h
Compound,MIC [µg/mL],MIC50 [µg/mL]
CCOc1c(/C=N\NC(=O)c2ccncc2)cccc1CN1CCN(C)CC1,6.25,3.2
CCCCN(CCCC)Cc1cccc(/C=N\NC(=O)c2ccncc2)c1OCC,12.5,6.4
CCOc1ccccc1/C=N\NC(=O)c1ccncc1,50,25.6
CCCN(CCC)Cc1cccc(/C=N\NC(=O)c2ccncc2)c1OCC,12.5,6.4
CCOc1c(/C=N\NC(=O)c2ccncc2)cccc1CN1CCCCC1,12.5,6.4
CC1(C)S[C@@H]2[C@H](NC(=O)[C@H](N)c3ccc(O)cc3)C(=O)N2[C@H]1C(=O)O [AMOXICILLIN],3.12,1.6

# Tested on: Pseudomonas aeruginosa
# Assay: Antimicrobial activity against Pseudomonas aeruginosa ATCC […] after 24 hr by broth dilution method
# Format: functional
# Settings: not given
Compound,MIC [µg/mL],MIC50 [µg/mL]
CCOc1c(/C=N\NC(=O)c2ccncc2)cccc1CN1CCN(C)CC1,12.5,6.4
CCCCN(CCCC)Cc1cccc(/C=N\NC(=O)c2ccncc2)c1OCC,12.5,6.4
CCOc1ccccc1/C=N\NC(=O)c1ccncc1,25,12.8
CCCN(CCC)Cc1cccc(/C=N\NC(=O)c2ccncc2)c1OCC,12.5,6.4
CCOc1c(/C=N\NC(=O)c2ccncc2)cccc1CN1CCCCC1,12.5,6.4
CC1(C)S[C@@H]2[C@H](NC(=O)[C@H](N)c3ccc(O)cc3)C(=O)N2[C@H]1C(=O)O [AMOXICILLIN],6.25,3.2

# Tested on: Staphylococcus aureus
# Assay: Antimicrobial activity against Staphylococcus aureus ATCC 29213 after 24 hr by broth dilution method
# Format: functional
# Settings: ATCC 29213, 24 h
Compound,MIC [µg/mL],MIC50 [µg/mL]
CCOc1c(/C=N\NC(=O)c2ccncc2)cccc1CN1CCN(C)CC1,6.25,3.2
CCCCN(CCCC)Cc1cccc(/C=N\NC(=O)c2ccncc2)c1OCC,12.5,6.4
CCOc1ccccc1/C=N\NC(=O)c1ccncc1,25,12.8
CCCN(CCC)Cc1cccc(/C=N\NC(=O)c2ccncc2)c1OCC,25,6.4
CCOc1c(/C=N\NC(=O)c2ccncc2)cccc1CN1CCCCC1,12.5,6.4
CC1(C)S[C@@H]2[C@H](NC(=O)[C@H](N)c3ccc(O)cc3)C(=O)N2[C@H]1C(=O)O [AMOXICILLIN],3.12,1.62

# Tested on: Bacillus subtilis
# Assay: Antimicrobial activity against Bacillus subtilis ATCC […] after 24 hr by broth dilution method
# Format: functional
# Settings: not given
Compound,MIC [µg/mL],MIC50 [µg/mL]
CCOc1c(/C=N\NC(=O)c2ccncc2)cccc1CN1CCN(C)CC1,12.5,6.4
CCCCN(CCCC)Cc1cccc(/C=N\NC(=O)c2ccncc2)c1OCC,25,12.8
CCOc1ccccc1/C=N\NC(=O)c1ccncc1,50,25.6
CCCN(CCC)Cc1cccc(/C=N\NC(=O)c2ccncc2)c1OCC,25,12.8
CCOc1c(/C=N\NC(=O)c2ccncc2)cccc1CN1CCCCC1,25,12.8
CC1(C)S[C@@H]2[C@H](NC(=O)[C@H](N)c3ccc(O)cc3)C(=O)N2[C@H]1C(=O)O [AMOXICILLIN],6.25,3.2

# Tested on: Staphylococcus aureus
# Assay: Antimicrobial activity against Staphylococcus aureus ATCC 29213 at 50 ug/ml after 24 to 48 hr by agar diffusion method
# Format: functional
# Settings: read-out: DIZ
row,Compound,zone of inhibition at 50 µg/mL [mm]
1,CC1(C)S[C@@H]2[C@H](NC(=O)[C@H](N)c3ccc(O)cc3)C(=O)N2[C@H]1C(=O)O [AMOXICILLIN],30

# Tested on: Bacillus subtilis
# Assay: Antimicrobial activity against Bacillus subtilis ATCC […] at 50 ug/ml after 24 to 48 hr by agar diffusion method
# Format: functional
# Settings: read-out: DIZ
row,Compound,zone of inhibition at 50 µg/mL [mm]
1,CC1(C)S[C@@H]2[C@H](NC(=O)[C@H](N)c3ccc(O)cc3)C(=O)N2[C@H]1C(=O)O [AMOXICILLIN],25

# Tested on: Nakaseomyces glabratus
# Assay: Antimicrobial activity against Candida glabrata ATCC 10233 at 100 ug/ml after 24 to 48 hr by agar diffusion method
# Format: functional
# Settings: read-out: DIZ
row,Compound,zone of inhibition at 100 µg/mL [mm]
1,CCOc1c(/C=N\NC(=O)c2ccncc2)cccc1CN1CCN(C)CC1,20
2,CCCCN(CCCC)Cc1cccc(/C=N\NC(=O)c2ccncc2)c1OCC,15
3,CCOc1ccccc1/C=N\NC(=O)c1ccncc1,11
4,CCCN(CCC)Cc1cccc(/C=N\NC(=O)c2ccncc2)c1OCC,15
5,CCOc1c(/C=N\NC(=O)c2ccncc2)cccc1CN1CCCCC1,16

# Tested on: Candida albicans
# Assay: Antimicrobial activity against Candida albicans ATCC 10231 at 100 ug/ml after 24 to 48 hr by agar diffusion method
# Format: functional
# Settings: read-out: DIZ
row,Compound,zone of inhibition at 100 µg/mL [mm]
1,CCOc1c(/C=N\NC(=O)c2ccncc2)cccc1CN1CCN(C)CC1,22
2,CCCCN(CCCC)Cc1cccc(/C=N\NC(=O)c2ccncc2)c1OCC,15
3,CCOc1ccccc1/C=N\NC(=O)c1ccncc1,13
4,CCCN(CCC)Cc1cccc(/C=N\NC(=O)c2ccncc2)c1OCC,15
5,CCOc1c(/C=N\NC(=O)c2ccncc2)cccc1CN1CCCCC1,16

# Tested on: Escherichia coli
# Assay: Antimicrobial activity against Escherichia coli ATCC 25922 at 100 ug/ml after 24 to 48 hr by agar diffusion method
# Format: functional
# Settings: read-out: DIZ
row,Compound,zone of inhibition at 100 µg/mL [mm]
1,CCOc1c(/C=N\NC(=O)c2ccncc2)cccc1CN1CCN(C)CC1,32
2,CCCCN(CCCC)Cc1cccc(/C=N\NC(=O)c2ccncc2)c1OCC,24
3,CCOc1ccccc1/C=N\NC(=O)c1ccncc1,18
4,CCCN(CCC)Cc1cccc(/C=N\NC(=O)c2ccncc2)c1OCC,22
5,CCOc1c(/C=N\NC(=O)c2ccncc2)cccc1CN1CCCCC1,25

# Tested on: Pseudomonas aeruginosa
# Assay: Antimicrobial activity against Pseudomonas aeruginosa ATCC […] at 100 ug/ml after 24 to 48 hr by agar diffusion method
# Format: functional
# Settings: read-out: DIZ
row,Compound,zone of inhibition at 100 µg/mL [mm]
1,CCOc1c(/C=N\NC(=O)c2ccncc2)cccc1CN1CCN(C)CC1,22
2,CCCCN(CCCC)Cc1cccc(/C=N\NC(=O)c2ccncc2)c1OCC,19
3,CCOc1ccccc1/C=N\NC(=O)c1ccncc1,14
4,CCCN(CCC)Cc1cccc(/C=N\NC(=O)c2ccncc2)c1OCC,18
5,CCOc1c(/C=N\NC(=O)c2ccncc2)cccc1CN1CCCCC1,20

# Tested on: Staphylococcus aureus
# Assay: Antimicrobial activity against Staphylococcus aureus ATCC 29213 at 100 ug/ml after 24 to 48 hr by agar diffusion method
# Format: functional
# Settings: read-out: DIZ
row,Compound,zone of inhibition at 100 µg/mL [mm]
1,CCOc1c(/C=N\NC(=O)c2ccncc2)cccc1CN1CCN(C)CC1,33
2,CCCCN(CCCC)Cc1cccc(/C=N\NC(=O)c2ccncc2)c1OCC,23
3,CCOc1ccccc1/C=N\NC(=O)c1ccncc1,19
4,CCCN(CCC)Cc1cccc(/C=N\NC(=O)c2ccncc2)c1OCC,22
5,CCOc1c(/C=N\NC(=O)c2ccncc2)cccc1CN1CCCCC1,25

# Tested on: Bacillus subtilis
# Assay: Antimicrobial activity against Bacillus subtilis ATCC […] at 100 ug/ml after 24 to 48 hr by agar diffusion method
# Format: functional
# Settings: read-out: DIZ
row,Compound,zone of inhibition at 100 µg/mL [mm]
1,CCOc1c(/C=N\NC(=O)c2ccncc2)cccc1CN1CCN(C)CC1,26
2,CCCCN(CCCC)Cc1cccc(/C=N\NC(=O)c2ccncc2)c1OCC,21
3,CCOc1ccccc1/C=N\NC(=O)c1ccncc1,15
4,CCCN(CCC)Cc1cccc(/C=N\NC(=O)c2ccncc2)c1OCC,21
5,CCOc1c(/C=N\NC(=O)c2ccncc2)cccc1CN1CCCCC1,23
